Measurements from US20180296663A1 (priority 2015, published 2018).

Experiments:
CD4+ T cells = system: CD4+ T cells; parameters: species or system BALB/c mice; conditions: mouse, in vivo
CD8+ T cells = system: CD8+ T cells; parameters: species or system Balb/c mice; conditions: mouse, in vivo

| Molecule | frequencies of HA-specific IFN-γ+/TNF+ CD4+ T cells (CD4+ T cells) | frequencies of HA-specific IFN-γ+/TNF+CD4+ T cells (CD4+ T cells) | number of IFNγ/TNF double-positive multifunctional CD8+ T cells in the spleen (CD8+ T cells) |
| --- | --- | --- | --- |
| Nc1nc2c(ncn2[C@@H]2O[C@@H]3COP(=O)(O)O[C@H]4[C@@H](O)[C@H](n5cnc6c(=O)[nH]c(N)nc65)O[C@@H]4COP(=O)(O)O[C@H]3[C@H]2O)c(=O)[nH]1 [c-di-GMP, cyclic diguanylate monophosphate] | higher frequencies | higher frequencies | – |
| HMGB1: high mobility group protein (HMGB) compound, which may act as an endogenous immunomodulator | – | – | significant increase |
